Experimental data reported in patent publication US9663496B2, “AMPK-activating heterocyclic compounds and methods for using the same” (Rigel Pharmaceuticals, Inc., priority 2010, dated 2017).

Biological target: AMPK
Test: AMPK activation, enzyme-linked immunosorbent assay
Format: biochemical
Conditions: EC50 for AMPK activation, ELISA
Method in brief: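 Test compounds were added, and kinase activation was then detected by immunoassay following established kit procedures.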

Row | Compound | EC50
1 | N#Cc1ccc(OC2CCN(C(=O)c3ccc(C(=O)NC4CCN(Cc5nccs5)CC4)cn3)CC2)cc1 [Compound 356, 6-(4-(4-cyanophenoxy)piperidine-1-carbonyl)-N-(1-(thiazol-2-ylmethyl)piperidin-4-yl)nicotinamide] | < 500 nM
2 | N#Cc1ccc(CN2CCC(NC(=O)c3ccc(C(=O)N4CCC(C(=O)c5ccc(F)cc5F)CC4)nc3)CC2)cc1 [Compound 346, N-(1-(4-cyanobenzyl)piperidin-4-yl)-6-(4-(2,4-difluorobenzoyl)piperidine-1-carbonyl)nicotinamide] | < 500 nM
3 | N#Cc1ccc(CN2CCC(NC(=O)c3ccc(C(=O)N4CCCC(Oc5ccc(C#N)cc5)C4)cn3)CC2)cc1 (stereo not shown) [Compound 137, N-(1-(4-cyanobenzyl)piperidin-4-yl)-5-(3-(4-cyanophenoxy)piperidine-1-carbonyl)picolinamide] | < 500 nM
4 | N#Cc1ccc(CN2CCC(NC(=O)c3ccc(C(=O)Nc4cccc(Cc5ccccc5)c4)cn3)CC2)cc1 [Compound 5, N^2-(1-(4-cyanobenzyl)piperidin-4-yl)-N^5-(3-benzylphenyl)pyridine-2,5-dicarboxamide] | 500 to 1000 nM
5 | O=C(NC1CCN(Cc2ccc(F)cc2)CC1)c1ccc(C(=O)N2CCC(Oc3ccc(C(F)(F)F)cc3)CC2)cn1 [Compound 179, N-(1-(4-fluorobenzyl)piperidin-4-yl)-5-(4-(4-(trifluoromethyl)phenoxy)piperidine-1-carbonyl)picolinamide] | < 500 nM
6 | N#Cc1ccc(CN2CCC(NC(=O)c3cnc(C(=O)N4CCC(Oc5ccc(C(F)(F)F)cc5)CC4)cn3)CC2)cc1 [Compound 212, N-(1-(4-cyanobenzyl)piperidin-4-yl)-5-(4-(4-(trifluoromethyl)phenoxy)piperidine-1-carbonyl)pyrazine-2-carboxamide] | < 500 nM
7 | COc1ccc(CN2CCC(NC(=O)c3ccc(C(=O)N4CCC(C(=O)c5ccc(S(C)(=O)=O)cc5)CC4)cn3)CC2)cc1 [Compound 234, N-(1-(4-methoxybenzyl)piperidin-4-yl)-5-(4-(4-(methylsulfonyl)benzoyl)piperidine-1-carbonyl)picolinamide] | < 500 nM
8 | O=C(NC1CCN(CC2CCCCC2)CC1)c1ccc(C(=O)N2CCN(Cc3ccc(F)cc3)CC2)cn1 [Compound 13, N-(1-(cyclohexylmethyl)piperidin-4-yl)-5-(4-(4-fluorobenzyl)piperazine-1-carbonyl)picolinamide] | 1000 to 5000 nM
9 | COc1ccc(CN2CCC(NC(=O)c3ccc(C(=O)N4CCC(C(=O)c5ccc(F)cc5F)CC4)cn3)CC2)cc1 [Compound 331, 5-(4-(2,4-difluorobenzoyl)piperidine-1-carbonyl)-N-(1-(4-methoxybenzyl)piperidin-4-yl)picolinamide] | < 500 nM
10 | COc1ccc(C(=O)C2CCN(C(=O)c3ccc(C(=O)N[C@@H]4CCN(Cc5cc(C)on5)C[C@@H]4F)cn3)CC2)cc1 [Compound 426, N-((3S,4R)-3-fluoro-1-((5-methylisoxazol-3-yl)methyl)piperidin-4-yl)-6-(4-(4-methoxybenzoyl)piperidine-1-carbonyl)nicotinamide] | < 500 nM
11 | CC(C)(C)OC(=O)NCCCc1cc(C(=O)N2CCN(Cc3ccc(F)cc3)CC2)cnc1C(=O)NC1CCN(Cc2ccc(C#N)cc2)CC1 [Compound 290, tert-butyl 3-(2-(1-(4-cyanobenzyl)piperidin-4-ylcarbamoyl)-5-(4-(4-fluorobenzyl)piperazine-1-carbonyl)pyridin-3-yl)propylcarbamate] | < 500 nM
12 | COc1ccc(OC2CCN(C(=O)c3ccc(C(=O)NC4CCN(Cc5ccc(N6CCCC6)cc5)CC4)nc3)CC2)cc1 [Compound 195, 5-(4-(4-methoxyphenoxy)piperidine-1-carbonyl)-N-(1-(4-(pyrrolidin-1-yl)benzyl)piperidin-4-yl)picolinamide] | < 500 nM
13 | CS(=O)(=O)c1ccc(Oc2ccc(NC(=O)c3ccc(C(=O)N4CCC(C(=O)c5ccc(F)cc5F)CC4)nc3)cn2)cc1 [Compound 466, 6-(4-(2,4-difluorobenzoyl)piperidine-1-carbonyl)-N-(6-(4-(methylsulfonyl)phenoxy)pyridin-3-yl)nicotinamide] | < 500 nM
